Experiments:
Aβ40 and Aβ42 = format: in vivo, APP/PS1 mice; conditions: cortex and hippocampus; AP5 40 mg/kg once daily 5 months
Protocol: (§1) APP/PS1 mice of ages 6 months were randomly divided into vehicle (APP/PS1, n = 10) and treatment groups (AP5, n = 10), which were intragastrically administered with AP5 (40 mg/kg) once daily for consecutive 5 months. AP5 was dissolved in distilled water containing 1% sodium carboxymethyl cellulose.
For detecting the pathological soluble or insoluble Aβ in mice, sequential extractions were performed as follows: the half of right hippocampus and cortex from three groups were homogenized in TBS solution containing 5 mM EDTA, phosphatase inhibitor (P1050, Beyotime, Shanghai, China), and protease inhibitor cocktail (P1010, Beyotime) followed by centrifugation at 25,000g at 4°C for 1 h. The supernatant was collected as a TBS fraction and the resulting pellet was solubilized in 70% formic acid (FA), sonicated until the lysis buffer was clear, followed by centrifugation at 25,000g at 4°C for 1 h. The supernatant was collected as the FA fraction and neutralized (1:20) in a neutralization buffer (1 M tris base, 0.5 M Na2HPO4, 0.05% NaN3). Human Aβ40 and Aβ42 were determined by ELISA kits (E-EL-H0452c and E-EL-H0453c, Elabscience, Wuhan, China) in accordance with the manufacturer’s instructions. In addition, the levels of IL-1β (88-7013-88, Invitrogen), IL-6 (EK206HS-96, Multi sciences, HangZhou, China), and TNF-α (88-7324-88, Invitrogen) in TBS fraction were also determined by ELISA.

[1] = system: spatial recognition memory; experiment: Y-maze; format: in vivo; conditions: after training for 3 h, relative to APP/PS1 mice
Protocol: as §1
(§2) To investigate whether AP5 treatment plays a key role in cognition improvement of APP/PS1 mice models, the five different behavioral tests were sequentially carried out in the following order: open field, novel object recognition task, spatial object-location task, Y-maze, and Morris water maze (MWM). AP5 was also administered daily during the test periods. […]
For the spatial object location task (an object moved to a new location), mice first explored the two objects placed in two corners of the open field for 5 min in training period. After 1 h or 24 h, the mice received a 5 min retention trial with a new spatial configuration with an object moved from one corner to the opposite corner of the open field.The discrimination index was calculated and defined as: (time spent exploring the displaced object-time spent exploring nondisplaced objects) / total exploration time for the two objects during the 5 min retention trial. […]
guided to platform and allowed to stay on it for 30 s. The time (escape latency) for each mouse to find the way and reach the target platform was analyzed. […]

recognition memory = experiment: Novel object recognition task; format: in vivo, APP/PS1 mice
Protocol: as §1, §2
To study the kinetics of Aβ-AChE fibril complex formation, 10 μM Aβ was mixed with AChE (R005282, Roche, Basel, Switzerland) and different concentrations AP5 and incubated with 10 μM ThT and 50 mM glycine-NaOH (pH 8.5) at 37°C, the ThT fluorescence was continually measured for 24 h at 30 min intervals. […] Fluorescence emission at485 nm was measured on a Spectra MAX GeminiXS fluorometerat an excitation wavelength of 450 nm. […]
To assess locomotor activity, mice were individually tested in an open-field box (38 cm × 38 cm × 25 cm). The movement of the mouse was tracked for 5 min with open fieldvideo analysis system, and the total move distances was automatically recorded as adirect measure of locomotor activity. […]

Question: Which results are given for `CCN(C)C(=O)Oc1cccc(/C=C2\Cc3cc(OC)c(OC)cc3C2=O)c1` [AP5, (E)-3-((5,6-dimethoxy-1-oxo-1,3-dihydro-2H-inden-2-ylidene)-methyl)phenylethyl(methyl)carbamate]?
Answer: Aβ40 and Aβ42 in TBS-fraction (Aβ40 and Aβ42): no marked differences; concentration of insoluble Aβ40 in FA-fractions (Aβ40 and Aβ42): markedly decreased; concentration of insoluble Aβ42 in FA-fractions (Aβ40 and Aβ42): markedly decreased; preference index [1]: marked elevation; discrimination index, novel object recognition (recognition memory; at 1 h, vs APP/PS1 mice): significantly higher; discrimination index, novel object recognition (recognition memory; at 24 h, vs APP/PS1 mice without treatment): significantly better
